20 compounds from publication PMC6328288 (Journal of Medicinal Chemistry, 2018) can be followed below.

The target in test [1] is T1, human CCR2 (Homo sapiens, UniProt P41597).
T1 sequence (P41597 1-360 isoform P41597-2): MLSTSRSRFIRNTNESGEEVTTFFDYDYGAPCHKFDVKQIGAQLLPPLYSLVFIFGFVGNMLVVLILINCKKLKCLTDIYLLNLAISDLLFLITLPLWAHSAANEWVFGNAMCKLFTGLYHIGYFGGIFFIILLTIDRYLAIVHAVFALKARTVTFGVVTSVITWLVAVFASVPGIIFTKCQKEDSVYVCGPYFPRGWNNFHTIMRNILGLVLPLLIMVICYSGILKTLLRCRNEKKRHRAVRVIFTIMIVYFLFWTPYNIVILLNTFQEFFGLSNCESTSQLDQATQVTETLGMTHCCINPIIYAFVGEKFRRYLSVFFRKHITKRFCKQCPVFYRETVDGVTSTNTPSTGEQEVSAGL
Nature of the test: [35S]GTPγS binding assay on U2OS-CCR2 membranes. It is filed as biochemical. As to conditions: for Hill slope, CCR2: CCL2-induced, 20 nM CCL2. For orientation: Binding of GTPγS marks nucleotide exchange on a G protein.

Test [2] addresses T1, human CCR2. The test is described as follows: [3H]-CCR2-RA-[R] displacement binding assay on U2OS-CCR2 membranes. Conditions: for pKi ± SEM / displacement at 1 μM (%): CCR2; for pKi ± SEM: [3H]-CCR2-RA-[R] binding, U2OS membranes, 25 °C; for displacement at 1 μM (%): [3H]-CCR2-RA-[R] displacement by 1 μM compound, mean of two experiments.
The target in test [3] is T2, human CCR1 (Homo sapiens, UniProt P32246).
T2 sequence (P32246 1-355): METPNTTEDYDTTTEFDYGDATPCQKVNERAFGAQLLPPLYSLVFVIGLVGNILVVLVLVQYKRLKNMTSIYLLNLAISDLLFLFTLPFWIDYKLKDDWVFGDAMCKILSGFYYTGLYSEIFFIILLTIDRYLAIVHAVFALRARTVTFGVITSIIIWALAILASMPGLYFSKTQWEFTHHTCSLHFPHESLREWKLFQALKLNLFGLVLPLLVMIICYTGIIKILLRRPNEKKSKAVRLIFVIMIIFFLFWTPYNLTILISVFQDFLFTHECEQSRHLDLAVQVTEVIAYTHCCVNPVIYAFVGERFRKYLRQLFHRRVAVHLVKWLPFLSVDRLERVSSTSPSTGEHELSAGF
Nature of the test: [35S]GTPγS binding assay on U2OS-CCR1 membranes. Type of test: biochemical. As to conditions: for Hill slope, CCR1: CCL3-induced, 8 nM CCL3.

Test [4] has as its target T2, human CCR1. Nature of the test: Inhibition of basal [35S]GTPγS binding in absence of CCL3 in U2OS-CCR1. Type of test: biochemical. Conditions: for fold difference between functional and binding assays: CCR1, [35S]GTPγS potency (absence or presence of CCL3) versus binding affinity; for fold higher potency as inverse agonist than as antagonist: CCR1, absence versus presence of CCL3.

Test [5] has as its target T2, human CCR1. Nature of the test: [3H]-CCR2-RA-[R] displacement binding assay on U2OS-CCR1 membranes. Conditions: for displacement of [3H]-CCR2-RA-[R] from CCR1 (in words): concentration-dependent. In general terms: In a radioligand displacement assay an active substance lowers the binding of a labelled ligand.
The mark [6] stands for this setting: CCR1, [3H]-CCR2-RA-[R] binding, U2OS membranes, 25 °C.

As for `O=C(C1=C(O)C(=O)N(c2ccc(Br)cc2F)C1C1CCCCC1)C1CC1` (stereo not shown) [Compound 43, 1-(4-Bromo-2-fluorophenyl)-5-cyclohexyl-4-(cyclopropanecarbonyl)-3-hydroxy-1,5-dihydro-2H-pyrrol-2-one], the “Hill slope, CCR2” value at human CCR2 [1] was “–0.80 ± 0.13”. In addition, the “pKi ± SEM” value on human CCR2 [2] is reported as 7.82 ± 0.04. Also, the “Hill slope, CCR1” value on human CCR1 [3] is reported as “–0.73 ± 0.02”. In addition, the “fold difference between functional and binding assays” value on human CCR1 [4] was “more than 130 fold”. For `CC(=O)C1=C(O)C(=O)N(c2ccc(C)c(C)c2)C1C1CCCCC1` (stereo not shown) [Compound 40, 4-Acetyl-5-cyclohexyl-1-(3,4-dimethylphenyl)-3-hydroxy-1,5-dihydro-2H-pyrrol-2-one], the “pKi ± SEM” value is 7.37 ± 0.03 on human CCR1 [5] (setting [6]) and 7.75 ± 0.02 on human CCR2 [2].

Take `CC(=O)C1=C(O)C(=O)N(c2ccc(Br)cc2)C1C1CCCCC1` (stereo not shown) [Compound 31, 4-Acetyl-1-(4-bromophenyl)-5-cyclohexyl-3-hydroxy-1,5-dihydro-2H-pyrrol-2-one]: the Ki (commonly the dissociation constant of the complex between target and ligand, obtained from inhibition or displacement) on human CCR2 [2] is about 20 nM. Regarding “CCL2: chemokine ligand activating CCR2, purchased from PeproTech”, in the test with human CCR2 [1] (U2OS-CCR2), the “pEC50, stimulation of [35S]GTPγS binding” value amounted to 8.3 ± 0.09. Further, in the test with human CCR2 [1] (read-out: potency, stimulation of [35S]GTPγS binding, U2OS-CCR2), the EC50 was found to be 5 nM.

As to `CC(=O)C1=C(O)C(=O)N(c2ccc(C)cc2)C1c1cccc(C)c1` (stereo not shown) [Compound 14, 4-Acetyl-3-hydroxy-5-(3-methylphenyl)-1-(4-methylphenyl)-1,5-dihydro-2H-pyrrol-2-one], the “displacement at 1 μM (%)” value on human CCR2 [2] is on record as 11% (14, 8). Turning to `COc1cccc(C2C(C(C)=O)=C(O)C(=O)N2c2ccc(C)cc2)c1` (stereo not shown) [Compound 15, 4-Acetyl-3-hydroxy-5-(3-methoxyphenyl)-1-(4-methylphenyl)-1,5-dihydro-2H-pyrrol-2-one], the “displacement at 1 μM (%)” value at human CCR2 [2] is reported as 0% (3, −3). As for `CC(=O)C1=C(O)C(=O)N(c2ccc(Cl)c(C)c2)C1C1CCCCC1` (stereo not shown) [Compound 41, 4-Acetyl-1-(4-chloro-3-methylphenyl)-5-cyclohexyl-3-hydroxy-1,5-dihydro-2H-pyrrol-2-one], the “Hill slope, CCR2” value at human CCR2 [1] is listed as “–0.88 ± 0.13”. In addition, on human CCR1 [3], the “Hill slope, CCR1” value is on record as “–0.72 ± 0.08”. Further, the “fold higher potency as inverse agonist than as antagonist” value on human CCR1 [4] was about 10 fold. With `CCOC(=O)C1=C(O)C(=O)N(c2ccc(C)cc2)C1C1CCCCC1` (stereo not shown) [Compound 24, Ethyl 2-Cyclohexyl-4-hydroxy-5-oxo-1-(4-methylphenyl)-2,5-dihydro-1H-pyrrole-3-carboxylate], on human CCR2 [2], the “displacement at 1 μM (%)” value is 31% (36, 26).

On to `CCC(=O)C1=C(O)C(=O)N(c2ccc(C)cc2)C1C1CCCCC1` (stereo not shown) [Compound 18, 5-Cyclohexyl-3-hydroxy-4-propionyl-1-(4-methylphenyl)-1,5-dihydro-2H-pyrrol-2-one], for which, at human CCR1 [5] (setting [6]), the “pKi ± SEM” value worked out at 7.52 ± 0.01. `C[C@@H]1CN(Cc2ccc(F)cc2)CCN1C(=O)COc1ccc(Cl)cc1NC(N)=O` [BX471]: the “[3H]-CCR2-RA-[R] specific binding in presence of compound (absence = 100%)” value at human CCR1 [5] (10 μM BX471, 6 nM radioligand, U2OS-CCR1) turned out to be 116 ± 2%. The “[3H]-CCR2-RA-[R] binding enhanced up to” value at human CCR1 [5] (U2OS-CCR1, increasing concentrations) is on record as “up to 120%”. The “displacement of [3H]-CCR2-RA-[R] from CCR1 (in words)” value on human CCR1 [5] (U2OS-CCR1) is “not able to displace”.

Turning to “CCL3: chemokine ligand activating CCR1, purchased from PeproTech”, in the test with human CCR1 [3] (U2OS-CCR1), the “pEC50, stimulation of [35S]GTPγS binding” value worked out at 8.9 ± 0.06. The EC50 with human CCR1 [3] (read-out: potency, stimulation of [35S]GTPγS binding, U2OS-CCR1) turned out to be 1.3 nM. As for `O=C(C1=C(O)C(=O)N(c2ccc(Br)cc2F)C1c1cccc(Br)c1)C1CC1` (stereo not shown) [Compound 45, 1-(4-Bromo-2-fluorophenyl)-5-(3-bromophenyl)-4-(cyclopropanecarbonyl)-3-hydroxy-1,5-dihydro-2H-pyrrol-2-one], on human CCR2 [1], the “Hill slope, CCR2” value is on record as “–1.20 ± 0.08”. The “Hill slope, CCR1” value on human CCR1 [3] is given as “–0.93 ± 0.01”. Besides, the “fold difference between functional and binding assays” value on human CCR1 [4] is “more than 130 fold”. In the case of `CC(=O)C1=C(O)C(=O)N(c2ccc(Br)cc2F)C1c1cccc(Br)c1` (stereo not shown) [Compound 46, 4-Acetyl-1-(4-bromo-2-fluorophenyl)-5-(3-bromophenyl)-3-hydroxy-1,5-dihydro-2H-pyrrol-2-one], at human CCR1 [5] (setting [6]), the “pKi ± SEM” value worked out at 7.19 ± 0.02. `COc1ccc(C2C(C(C)=O)=C(O)C(=O)N2c2ccc(C)cc2)cc1` (stereo not shown) [Compound 11, 4-Acetyl-3-hydroxy-5-(4-methoxyphenyl)-1-(4-methylphenyl)-1,5-dihydro-2H-pyrrol-2-one]: at human CCR2 [2], the “displacement at 1 μM (%)” value is 5% (5, 5). Regarding `Cc1ccc(N2C(=O)C(O)=C(C(=O)C3CC3)C2C2CCCCC2)cc1` (stereo not shown) [Compound 22, 5-Cyclohexyl-4-(cyclopropanecarbonyl)-3-hydroxy-1-(4-methylphenyl)-1,5-dihydro-2H-pyrrol-2-one], at human CCR1 [5] (from binding affinities), the “selectivity for CCR1 over CCR2” value was found to be 8 fold. On to `CC(=O)C1=C(O)C(=O)N(c2ccc(Br)cc2F)C1C1CCCCC1` (stereo not shown) [Compound 39, 4-Acetyl-1-(4-bromo-2-fluorophenyl)-5-cyclohexyl-3-hydroxy-1,5-dihydro-2H-pyrrol-2-one], for which the “Hill slope, CCR2” value on human CCR2 [1] was “–0.94 ± 0.18”. Also, the “Hill slope, CCR1” value at human CCR1 [3] is on record as “–0.62 ± 0.05”. The “fold higher potency as inverse agonist than as antagonist” value at human CCR1 [4] is 3 fold. Turning to `CC(=O)C1=C(O)C(=O)N(c2ccc(Cl)cc2)C1C1CCCCC1` (stereo not shown) [Compound 30, 4-Acetyl-1-(4-chlorophenyl)-5-cyclohexyl-3-hydroxy-1,5-dihydro-2H-pyrrol-2-one], on human CCR2 [2], the Ki is about 20 nM and the “pKi ± SEM” value amounted to 7.73 ± 0.08. `O=C(C1=C(O)C(=O)N(c2ccc(Br)cc2F)C1C1CCCCC1)c1ccccc1` (stereo not shown) [Compound 44, 4-Benzoyl-1-(4-bromo-2-fluorophenyl)-5-cyclohexyl-3-hydroxy-1,5-dihydro-2H-pyrrol-2-one]: on human CCR1 [5] (setting [6]), the “pKi ± SEM” value amounted to 7.56 ± 0.04. Regarding `CC(=O)C1=C(O)C(=O)N(c2ccc(C)cc2)C1c1ccc(C)cc1` (stereo not shown) [Compound 10, 4-Acetyl-3-hydroxy-5-(4-methylphenyl)-1-(4-methylphenyl)-1,5-dihydro-2H-pyrrol-2-one], the “displacement at 1 μM (%)” value at human CCR2 [2] is on record as 36% (42, 31). `COC(=O)c1c(-c2ccno2)[nH]c(=S)n1CCCc1ccc(F)c(F)c1` [JNJ-27141491, (S)-3-[3,4-difluorophenyl)-propyl]-5-isoxazol-5-yl-2-thioxo-2,3-dihydro-1H-imidazole-4-carboxyl acid methyl ester]: on human CCR1 [5] (setting [6]), the Ki amounted to 138 nM and the “pKi ± SEM” value was determined as 6.9 ± 0.06. The “displacement of [3H]-CCR2-RA-[R] from CCR1 (in words)” value at human CCR1 [5] (U2OS-CCR1) was “fully displaced”.
